From ChEMBL document CHEMBL1201862, “PubChem BioAssay data set” (2004)
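Cells were grown in 96-well plates and exposed to each compound for 48 hours at five concentrations; endpoints were interpolated linearly between bracketing concentrations, or set to the highest concentration if not reached. Abbreviation: GI50, concentration required for 50% inhibition of growth.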 The source made the active and inactive calls. No stated cut-off is given here; in the data, active = GI50 up to about 1.1 µM and inactive = higher.

Tests used:
Assay in all cases: growth of human tumour cells (NCI), 48 h
EKVX = system: EKVX
NCI-H226 = system: NCI-H226
SW-620 = system: SW-620
LOX IMVI = system: LOX IMVI
SF-295 = system: SF-295
SNB-75 = system: SNB-75
OVCAR-3 = system: OVCAR-3
MDA-N = system: MDA-N
OVCAR-4 = system: OVCAR-4
SN12C = system: SN12C
U-251 = system: U-251
SK-MEL-5 = system: SK-MEL-5
BT-549 = system: BT-549
CAKI-1 = system: CAKI-1
NCI/ADR-RES = system: NCI/ADR-RES
MDA-MB-435 = system: MDA-MB-435
UACC-257 = system: UACC-257
HCC 2998 = system: HCC 2998
SF-539 = system: SF-539

Measured: GI50

O=C1c2ccccc2C(=O)N1C1(C(=O)NC2(C(=O)O)CCCC2)CCCC1
inactive: EKVX > 100 µM | NCI-H226 > 100 µM | SW-620 > 100 µM | LOX IMVI > 100 µM | SF-295 > 100 µM | SNB-75 > 100 µM | OVCAR-3 > 100 µM | MDA-N > 100 µM | OVCAR-4 > 100 µM | SN12C > 100 µM | U-251 > 100 µM | SK-MEL-5 > 100 µM | BT-549 > 100 µM | CAKI-1 > 100 µM | NCI/ADR-RES > 100 µM | MDA-MB-435 > 100 µM | UACC-257 > 100 µM | HCC 2998 > 100 µM

O=C(O)/C(=C\c1ccc(O)cc1)c1cccc2ccccc12
inactive: EKVX 90.6 µM | NCI-H226 > 100 µM | SW-620 > 100 µM | LOX IMVI > 100 µM | SF-295 > 100 µM | SNB-75 > 100 µM | OVCAR-3 64.4 µM | MDA-N > 100 µM | OVCAR-4 > 100 µM | SN12C > 100 µM | U-251 > 100 µM | SK-MEL-5 > 100 µM | BT-549 > 100 µM | CAKI-1 > 100 µM | NCI/ADR-RES > 100 µM | MDA-MB-435 > 100 µM | UACC-257 > 100 µM | HCC 2998 > 100 µM

O=C(O)c1nc2ccc(C(F)(F)F)cc2nc1Nc1ccc(F)cc1
inactive: EKVX 20.7 µM | NCI-H226 18.1 µM | SW-620 23.6 µM | LOX IMVI 18.5 µM | SF-295 11.5 µM | SNB-75 23.3 µM | OVCAR-3 12.2 µM | MDA-N 27.5 µM | OVCAR-4 22.6 µM | SN12C 26.8 µM | U-251 7.38 µM | SK-MEL-5 18 µM | BT-549 12.5 µM | CAKI-1 30 µM | NCI/ADR-RES 20.2 µM | MDA-MB-435 17.6 µM | UACC-257 22.3 µM | HCC 2998 15.7 µM

O=C(Cc1nc2ncccc2[nH]c1=O)c1c[nH]c2ccccc12
inactive: EKVX 21.4 µM | SW-620 17.1 µM | SF-539 16.6 µM | LOX IMVI 20.7 µM | SF-295 16.5 µM | OVCAR-3 18 µM | MDA-N 19.7 µM | SN12C 18.2 µM | U-251 17.7 µM | SK-MEL-5 23.1 µM | BT-549 29.4 µM | CAKI-1 17.4 µM | NCI/ADR-RES 29.4 µM | MDA-MB-435 15.9 µM | UACC-257 19.5 µM | HCC 2998 19.8 µM

CC(C)c1cccc(C(=O)NCCN(C)C)c1[N+](=O)[O-]
inactive: NCI-H226 > 100 µM | SW-620 > 100 µM | SF-539 > 100 µM | SF-295 > 100 µM | SNB-75 35 µM | OVCAR-3 > 100 µM | MDA-N > 100 µM | SN12C > 100 µM | U-251 > 100 µM | SK-MEL-5 > 100 µM | BT-549 19.5 µM | CAKI-1 > 100 µM | NCI/ADR-RES > 100 µM | MDA-MB-435 > 100 µM | UACC-257 > 100 µM | HCC 2998 > 100 µM

CCCc1cc(=O)oc2c(C=O)c(O)cc(O)c12
inactive: EKVX 21.3 µM | SW-620 21.8 µM | SF-539 26.7 µM | LOX IMVI 20 µM | SF-295 29.9 µM | SNB-75 11.3 µM | OVCAR-3 18.7 µM | MDA-N 22.3 µM | OVCAR-4 25.8 µM | SN12C 24.9 µM | U-251 22.5 µM | SK-MEL-5 17.4 µM | BT-549 25.1 µM | CAKI-1 27 µM | NCI/ADR-RES 27.4 µM | MDA-MB-435 21.8 µM | UACC-257 24.6 µM | HCC 2998 16.7 µM

CC(C)[Si](OC1=C(C(=O)N(C)c2ccccc2Cl)CCC1)(C(C)C)C(C)C
inactive: EKVX 16.9 µM | NCI-H226 21.1 µM | SW-620 24 µM | SF-539 22.9 µM | LOX IMVI 19.2 µM | SF-295 14.2 µM | SNB-75 13.3 µM | OVCAR-3 16.7 µM | MDA-N 19.8 µM | OVCAR-4 16.3 µM | SN12C 16.7 µM | U-251 16 µM | SK-MEL-5 24.8 µM | BT-549 15.8 µM | CAKI-1 18.7 µM | NCI/ADR-RES 16.2 µM | MDA-MB-435 19 µM | UACC-257 19 µM

Cc1nc2n(c1/C=C1/C(=O)Nc3ccccc31)CCS2
inactive: EKVX 46.7 µM | SW-620 47.4 µM | SF-539 41.5 µM | LOX IMVI 72.4 µM | SF-295 39.6 µM | SNB-75 17.3 µM | OVCAR-3 70.1 µM | MDA-N 17.6 µM | OVCAR-4 52.5 µM | SN12C 56.1 µM | U-251 42.4 µM | SK-MEL-5 31.5 µM | BT-549 41.3 µM | CAKI-1 42.1 µM | NCI/ADR-RES 33.8 µM | MDA-MB-435 14.8 µM | UACC-257 33.3 µM | HCC 2998 20.8 µM

OCC1CCCCN1Cc1nc2cc(Cl)ccc2[nH]1 (centres undefined)
inactive: EKVX > 100 µM | NCI-H226 95.5 µM | SW-620 > 100 µM | SF-539 > 100 µM | SF-295 > 100 µM | SNB-75 > 100 µM | OVCAR-3 > 100 µM | MDA-N > 100 µM | OVCAR-4 > 100 µM | SN12C > 100 µM | U-251 > 100 µM | SK-MEL-5 > 100 µM | BT-549 > 100 µM | CAKI-1 > 100 µM | NCI/ADR-RES > 100 µM | MDA-MB-435 > 100 µM | UACC-257 > 100 µM | HCC 2998 > 100 µM

COC(=O)[C@]1(CCC(C)=O)C(=O)C=CN([C@H](C)c2ccccc2)[C@@H]1Cc1ccc(OC)c(OCc2ccccc2)c1I
inactive: EKVX 29.6 µM | NCI-H226 15.7 µM | SW-620 32.9 µM | SF-539 16.6 µM | LOX IMVI 17.2 µM | SF-295 17.7 µM | OVCAR-3 16.8 µM | MDA-N 18.7 µM | OVCAR-4 19.3 µM | SN12C 18 µM | U-251 17.3 µM | SK-MEL-5 13.9 µM | BT-549 24.1 µM | CAKI-1 29.2 µM | NCI/ADR-RES 29.2 µM | MDA-MB-435 18.1 µM | UACC-257 16.7 µM | HCC 2998 14.2 µM

COC(=O)c1cc(=O)n(-c2ccc3nn(C)nc3c2)cc1C(=O)OC
inactive: EKVX > 100 µM | NCI-H226 > 100 µM | SW-620 > 100 µM | SF-539 > 100 µM | SF-295 > 100 µM | SNB-75 > 100 µM | OVCAR-3 > 100 µM | MDA-N > 100 µM | OVCAR-4 > 100 µM | SN12C > 100 µM | U-251 > 100 µM | SK-MEL-5 > 100 µM | BT-549 > 100 µM | CAKI-1 > 100 µM | NCI/ADR-RES > 100 µM | MDA-MB-435 > 100 µM | UACC-257 > 100 µM | HCC 2998 > 100 µM
